Measurements from patent US5952294A, “Peptidyl prodrugs and methods of making and using the same” (University of Pittsburgh of the Commonwealth System of …, priority 1996, dated 1999).
Converted amounts (≈) assume the structure as drawn.

Legend:
[1] = system: human promyelocytic leukemia HL-60 cells; test: Induction of apoptosis (morphology) in HL-60 cells; type: cell-based; details: for Maximum percentage of cells exhibiting frank apoptotic morphology: FIG. 9; for Appearance of apoptotic bodies / increase in apoptosis: 24 hours exposure, about 10 micromols
Protocol: (§1) The ability of the prodrug compounds to kill human tumor cells was tested, specifically their ability to induce apoptosis in human promyelocytic leukemia HL-60 cells. These cells are known to undergo apoptosis following exposure to ara-C. The ability of the prodrugs to cause internucleosomal DNA fragmentation, a characteristic feature of apoptosis in HL-60 cells, was also investigated. The HL-60 were cultured in essentially the same manner as the L-1210 cells, only using Iscoue's modification for the medium. Internucleosomal DNA fragmentation was determined as follows. Following the indicated drug treatments, aliquots of cells (1×10^6) were pelleted by centrifugation at 100×g for 5 minutes, washed with PBS, solubilized with 20 microliters of lysis buffer (10 mM EDTA, 0.5% sarkosyl, 1 mg/ml proteinase K, 50 mM Tris, pH8), and incubated at 50° C. for 1 hour. After incubation, RNaseA (Boehringer Mannheim) was added to a final concentration of 0.33 mg/ml and incubated for an additional hour at 37° C. The lysate was loaded into dry wells of a 1.8% agarose gel, the wells were sealed with low melting point agarose, and the DNA was electrophoresed using Tris-phosphate-EDTA (TPE) running buffer. After electrophoresis, the DNA was stained by immersion of the gel in water containing 1 μg/ml ethidium bromide (Sigma). The DNA was visualized and photographed using an ultraviolet transilluminator.
The formation of apoptotic bodies occurred within a maximal halftime of 4 hours and there was no noticeable difference in the kinetics of apoptosis among ara-C, 10, 15 and 17.

[2] = system: Murine L-1210 leukemia cells; test: L-1210 cell line growth inhibition assay; type: cell-based
Protocol: The antiproliferation activity of compounds 10, 15, 17 and 19, as compared to ara-C, was tested in an L-1210 cell line growth inhibition assay using various concentrations and continuous exposure. Cell numbers were determined 72 hours after initial drug exposure. Murine L-1210 leukemia cells were grown in suspension using Dulbecco's medium (Gibco/BRL) supplemented with 10% fetal bovine serum (FBS, HyClone), […] of L-glutamine, 100 U/ml penicillin G sodium, and 100 μg/m1 streptomycin (Gibco/BRL). Cells were grown in a humidified incubator as 37° C. under an atmosphere of 95% air and 5% CO2. Cells were routinely passaged at a 1:5 ratio and found to be free of mycoplasma contamination.

[3] = Stability in bovine or human plasma by HPLC (plasma not distinguished); type: in vitro ADME; details: for Cyclization / stability in plasma: bovine or human plasma, HPLC
Protocol: (§2) HPLC studies of the cyclization process in plasma were performed on a 4 mg/ml solution of prodrug in plasma. At appropriate time intervals, 25 microliter aliquots were removed and 0.20 ml of CH3 CN was added to precipitate the protein. After centrifugation, about 25 microliters of clear supernatant liquid was injected directly into the HPLC port. The HPLC analysis was performed with a C-18 reverse phase column using an H2 O/CH3 CN (1:1) eluent and the UV detector was set at 250 nm. The relative concentration of ara-C was determined by the relative peak areas. […] The disappearance of characteristic signals of the prodrugs was accompanied by the appearance of signals of ara-C and the corresponding heterocycles. […] FIGS. 6 through 8 plot the percent concentration of prodrug over time. Table 1 below provides the half life (in hours) for ara-C release of prodrugs 10, 15, 17 and 19 as determined by NMR and HPLC analysis.
The stability of these compounds in bovine and human plasma was determined by HPLC analysis (Entry 5 and 6 in Table 1).

[4] = Release of ara-C from prodrugs (cyclization) in CD3OD or D2O monitored by 1H NMR; type: physicochemical; details: for Half-life (hours) for release of ara-C, t1/2: 22° C., 1H NMR
Protocol: The stability of the ara-C prodrug compounds 10, 15, 17 and 19, prepared according to Example 1, in various reaction media was investigated by NMR and HPLC analyses. The ^1 H NMR studies of the cyclization process were performed on a 4 mg/ml solution of prodrug in CD3 OD or D2 O. Sodium acetate (2 mg) or acetic acid (2 microliters) were added neat to the samples to control the pH. The spectra were collected in appropriate time intervals, and the ratio of prodrug to drug was determined by comparing the integration of the H-C (6) on the nucleoside of prodrug and ara-C.

[5] = Release of ara-C from prodrugs in human plasma by HPLC; type: in vitro ADME; details: pH 7.4, 22° C.
Protocol: as §2

[6] = Release of ara-C from prodrugs in bovine plasma by HPLC; type: in vitro ADME; details: pH 7.4, 22° C.
Protocol: as §2

[7] = system: human promyelocytic leukemia HL-60 cells; test: Internucleosomal DNA fragmentation in HL-60 cells; type: cell-based
Protocol: as §1, with “These cells are known to undergo apoptosis following exposure to ara-C.” left out
DNA fragmentation of the compounds was tested.

[8] = total; cited from earlier work
[9] = continuous exposure, cell numbers 72 hours after initial drug exposure
[10] = Mus musculus, L1210, continuous exposure, cell numbers 72 hours after initial drug exposure

Compound: CC(C)(NC(=O)[C@@H](N)Cc1ccc(OCc2ccccc2)cc1)C(=O)Nc1ccn([C@@H]2O[C@H](CO)[C@@H](O)[C@@H]2O)c(=O)n1.Cl [Compound 10, Tyr(OBn)-Aib-ara-C hydrochloride]
- Maximal halftime of formation of apoptotic bodies [1]: ≤ 4 h
- Maximum percentage of cells exhibiting frank apoptotic morphology [1]: approximately 25%
- IC50 and IC90 values compared with ara-C control ([2]; L-1210 cells): essentially identical to the ara-C control
- L-1210 Cell Growth Inhibition IC50 [2, 9]: 1.3 ng/mL
- L-1210 Cell Growth Inhibition IC90 [2, 9]: 5 ng/mL
- Cyclization / stability in plasma [3]: cyclize readily
- Half-life (hours) for release of ara-C, t1/2 ([4]; CD3OD): 42 h
- Half-life (hours) for release of ara-C, t1/2 ([4]; CD3OD, HOAc): 31 h
- Half-life (hours) for release of ara-C, t1/2 ([4]; CD3OD, NaOAc): 0.3 h
- Faster cyclization upon change from CD3OD to D2O ([4]; D2O versus CD3OD): about 50%
- Half-life (hours) for release of ara-C, t1/2 ([4]; D2O): 21 h
- Half-life (hours) for release of ara-C, t1/2 [5]: 0.3 h
- Half-life (hours) for release of ara-C, t1/2 [6]: 0.4 h

Compound: Nc1ccn([C@@H]2O[C@H](CO)[C@@H](O)[C@@H]2O)c(=O)n1 [ara-C, 1-(β-D-arabinofuranosyl) cytosine, reference compound]
- Maximal halftime of formation of apoptotic bodies [1]: ≤ 4 h
- Appearance of apoptotic bodies / increase in apoptosis [1]: obvious apoptotic bodies
- Maximum percentage of cells exhibiting frank apoptotic morphology [1]: approximately 25%
- IC50 [2, 10]: 1.5 ng/mL (≈ 0.00617 µM)
- IC90 [2, 10]: 4.3 ng/mL (≈ 0.0177 µM)
- Internucleosomal DNA fragmentation ([7]; about 10 micromols, 4 hours): displayed internucleosomal 180-200 base pair DNA fragments
- Fraction of dose excreted in the urine within 24 hours [8]: About 80%

Compound: Aib-Aib-ara-C hydrochloride [Compound 15]
- Maximal halftime of formation of apoptotic bodies [1]: ≤ 4 h
- Maximum percentage of cells exhibiting frank apoptotic morphology [1]: approximately 25%
- IC50 and IC90 values compared with ara-C control ([2]; L-1210 cells): essentially identical to the ara-C control
- L-1210 Cell Growth Inhibition IC50 [2, 9]: 1.1 ng/mL
- L-1210 Cell Growth Inhibition IC90 [2, 9]: 3.4 ng/mL
- Cyclization / stability in plasma [3]: cyclize readily
- Half-life (hours) for release of ara-C, t1/2 ([4]; CD3OD): > 1000 h
- Half-life (hours) for release of ara-C, t1/2 ([4]; CD3OD, HOAc): > 1000 h
- Half-life (hours) for release of ara-C, t1/2 ([4]; CD3OD, NaOAc): 1.3 h
- Half-life (hours) for release of ara-C, t1/2 [5]: 0.4 h
- Half-life (hours) for release of ara-C, t1/2 [6]: 0.5 h

Compound: CC(C)(N)C(=O)NNC(=O)Nc1ccn([C@@H]2O[C@H](CO)[C@@H](O)[C@@H]2O)c(=O)n1.Cl [Compound 19, Aib-2-Azagly-ara-C hydrochloride]
- Appearance of apoptotic bodies / increase in apoptosis [1]: no obvious increase in apoptosis
- Apoptotic activity after preincubation ([1]; compound preincubated in serum-free medium for 15 days, FIG. 10): slightly less than ara-C
- Times less toxic than ara-C in L-1210 test ([2]; L-1210 cells, versus ara-C): about 500 times
- L-1210 Cell Growth Inhibition IC50 [2, 9]: 600 ng/mL
- L-1210 Cell Growth Inhibition IC90 [2, 9]: 1400 ng/mL
- Cyclization / stability in plasma [3]: good stability
- ara-C detected in plasma after 48 hours ([3]; plasma, after 48 hours): No ara-C was detected
- Half-life (hours) for release of ara-C, t1/2 ([4]; CD3OD): > 2000 h
- Half-life (hours) for release of ara-C, t1/2 ([4]; CD3OD, HOAc): > 2000 h
- Half-life (hours) for release of ara-C, t1/2 ([4]; CD3OD, NaOAc): 800 h
- Cyclization to release the drug ([4]; in the presence of NaOAc): extremely slow
- Cyclization to release the drug ([4]; neutral or acid conditions): did not undergo cyclization
- DNA fragmentation after preincubation ([7]; compound preincubated in serum-free medium for 15 days): DNA ladders similar ara-C
- Half-life (hours) for release of ara-C, t1/2 [5]: > 10 h
- Half-life (hours) for release of ara-C, t1/2 [6]: > 10 h

Compound: Glc-Aib-ara-C [Compound 17]
- Maximal halftime of formation of apoptotic bodies [1]: ≤ 4 h
- Maximum percentage of cells exhibiting frank apoptotic morphology [1]: approximately 25%
- IC50 and IC90 values compared with ara-C control ([2]; L-1210 cells): essentially identical to the ara-C control
- L-1210 Cell Growth Inhibition IC50 [2, 9]: 1.0 ng/mL
- L-1210 Cell Growth Inhibition IC90 [2, 9]: 3.4 ng/mL
- Cyclization / stability in plasma [3]: cyclize readily
- Half-life (hours) for release of ara-C, t1/2 ([4]; CD3OD): 360 h
- Half-life (hours) for release of ara-C, t1/2 ([4]; CD3OD, HOAc): 860 h
- Half-life (hours) for release of ara-C, t1/2 ([4]; CD3OD, NaOAc): 1.4 h
- Half-life (hours) for release of ara-C, t1/2 [5]: 0.3 h
- Half-life (hours) for release of ara-C, t1/2 [6]: 0.4 h
